The results in this text go back to ChEMBL document CHEMBL1201862, “PubChem BioAssay data set” (2004).

Active and inactive are the calls of the source.

Targets include Cytochrome P450 2D6 (Homo sapiens, UniProt P10635); Cytochrome P450 2C9 (Homo sapiens, UniProt P11712); Cytochrome P450 3A4 (Homo sapiens, UniProt P08684).
For the next experiment, the target named is T1, Cytochrome P450 1A2 (Homo sapiens, UniProt P05177).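 Further: PubChem cytochrome P450 panel assay, CYP1A2 panel member.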
T1 sequence (P05177 whole entry): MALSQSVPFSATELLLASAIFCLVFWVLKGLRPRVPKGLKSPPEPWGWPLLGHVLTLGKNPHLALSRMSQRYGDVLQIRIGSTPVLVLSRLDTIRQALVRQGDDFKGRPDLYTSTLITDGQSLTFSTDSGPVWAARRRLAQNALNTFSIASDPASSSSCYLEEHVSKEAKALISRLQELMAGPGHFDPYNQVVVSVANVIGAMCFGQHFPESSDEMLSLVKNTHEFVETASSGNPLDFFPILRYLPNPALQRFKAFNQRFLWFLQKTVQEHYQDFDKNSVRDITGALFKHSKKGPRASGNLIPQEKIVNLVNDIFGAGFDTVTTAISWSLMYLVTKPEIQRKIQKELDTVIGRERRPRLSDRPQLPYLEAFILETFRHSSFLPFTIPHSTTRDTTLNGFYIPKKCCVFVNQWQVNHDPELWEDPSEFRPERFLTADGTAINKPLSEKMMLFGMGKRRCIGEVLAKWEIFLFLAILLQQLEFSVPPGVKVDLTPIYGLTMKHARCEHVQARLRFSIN

Experiment [1] can be described thus: viability of uninfected HEp-2 cells – cell-based, HTS, cytotoxicity control for RSV inhibitor project, dose response (AID 2410). The format is functional. The settings on record: human respiratory syncytial virus.
In another experiment the target is Cytochrome P450 2C19 (Homo sapiens, UniProt P33261). Nature of the experiment: Cytochrome panel assay with activity outcomes. Panel member name: p450-cyp2c19 Compounds with AC50 equal or less than 10 uM are considered active. The format is functional. The settings on record: read-out: AC50.
Cytochrome P450 2C19, sequence (P33261 whole entry): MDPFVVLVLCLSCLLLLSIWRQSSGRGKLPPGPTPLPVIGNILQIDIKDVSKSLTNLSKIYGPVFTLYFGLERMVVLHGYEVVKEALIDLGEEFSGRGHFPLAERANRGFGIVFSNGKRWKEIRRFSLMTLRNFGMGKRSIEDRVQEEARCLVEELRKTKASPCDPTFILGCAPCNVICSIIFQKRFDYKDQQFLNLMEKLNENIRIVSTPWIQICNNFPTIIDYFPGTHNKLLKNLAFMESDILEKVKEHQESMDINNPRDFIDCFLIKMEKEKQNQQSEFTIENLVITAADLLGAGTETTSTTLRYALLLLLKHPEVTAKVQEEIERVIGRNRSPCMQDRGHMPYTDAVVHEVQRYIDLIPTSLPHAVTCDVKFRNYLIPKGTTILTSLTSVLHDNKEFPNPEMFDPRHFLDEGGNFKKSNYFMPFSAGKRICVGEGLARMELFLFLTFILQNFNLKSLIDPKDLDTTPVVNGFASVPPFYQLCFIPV
Experiment [2] addresses T2, Heat shock factor protein 1 (Mus musculus, UniProt P38532).
T2 sequence (P38532 whole entry): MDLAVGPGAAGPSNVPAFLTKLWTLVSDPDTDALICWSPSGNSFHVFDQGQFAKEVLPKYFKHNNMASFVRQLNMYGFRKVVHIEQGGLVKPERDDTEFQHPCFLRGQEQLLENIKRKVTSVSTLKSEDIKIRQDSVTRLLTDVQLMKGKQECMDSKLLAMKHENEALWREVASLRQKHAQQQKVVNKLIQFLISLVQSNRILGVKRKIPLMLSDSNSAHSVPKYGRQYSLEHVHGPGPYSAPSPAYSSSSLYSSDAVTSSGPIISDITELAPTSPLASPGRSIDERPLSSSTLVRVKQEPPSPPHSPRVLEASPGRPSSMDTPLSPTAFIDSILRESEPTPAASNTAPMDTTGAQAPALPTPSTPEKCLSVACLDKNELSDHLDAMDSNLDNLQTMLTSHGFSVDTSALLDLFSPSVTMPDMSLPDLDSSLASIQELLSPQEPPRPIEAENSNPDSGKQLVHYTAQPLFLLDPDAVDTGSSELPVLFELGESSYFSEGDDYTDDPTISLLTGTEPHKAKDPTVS
Nature of the experiment: decrease of HSF1-responsive luciferase luminescence – cell-based, NIH3T3, dose retest, confirmation (AID 2382).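 Further: NIH3T3 fibroblasts with HSF1-driven luciferase reporter stressed by proteasome inhibitor MG132; luminescence from HSF1-driven luciferase expression after 8 hours of MG132 stress.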 The format is functional.

The nature of experiment [3]: Trypanosoma cruzi growth suppression in host cells – NIH3T3 host cells, beta-gal luminescence, confirmation (AID 2044).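 Further: intracellular parasites grown in NIH/3T3 mouse fibroblasts as host cells; luminescent beta-galactosidase reporter signal from transgenic T. cruzi replicating inside host cells; inhibitors lower the luminescence signal.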 The format is functional, cell-based.
The nature of experiment [4]: NIH3T3 cell viability loss – ATP luminescence, mouse fibroblasts, counter-screen, dose response (AID 2010).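 Further: cells exposed to compound for about 90 hours before reading.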 It counts as functional, cell-based. (In general: A counterscreen serves to expose hits that act by an unwanted route or on another target.)

Cytochrome P450 2C9, sequence (P11712 whole entry): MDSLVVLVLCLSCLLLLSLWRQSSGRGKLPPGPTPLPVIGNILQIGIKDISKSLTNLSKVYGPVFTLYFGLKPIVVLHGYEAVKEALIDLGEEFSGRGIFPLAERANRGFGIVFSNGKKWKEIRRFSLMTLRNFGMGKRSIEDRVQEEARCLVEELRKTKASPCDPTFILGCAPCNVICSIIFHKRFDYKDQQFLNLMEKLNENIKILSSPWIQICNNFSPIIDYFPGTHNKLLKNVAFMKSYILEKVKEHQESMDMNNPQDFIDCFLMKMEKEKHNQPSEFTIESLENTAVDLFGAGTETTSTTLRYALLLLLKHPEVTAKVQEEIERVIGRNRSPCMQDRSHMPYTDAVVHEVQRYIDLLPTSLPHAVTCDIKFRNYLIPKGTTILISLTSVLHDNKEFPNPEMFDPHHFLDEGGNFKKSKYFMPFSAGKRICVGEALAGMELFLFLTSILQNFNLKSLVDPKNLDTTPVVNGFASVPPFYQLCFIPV
Cytochrome P450 2D6, sequence (P10635 whole entry): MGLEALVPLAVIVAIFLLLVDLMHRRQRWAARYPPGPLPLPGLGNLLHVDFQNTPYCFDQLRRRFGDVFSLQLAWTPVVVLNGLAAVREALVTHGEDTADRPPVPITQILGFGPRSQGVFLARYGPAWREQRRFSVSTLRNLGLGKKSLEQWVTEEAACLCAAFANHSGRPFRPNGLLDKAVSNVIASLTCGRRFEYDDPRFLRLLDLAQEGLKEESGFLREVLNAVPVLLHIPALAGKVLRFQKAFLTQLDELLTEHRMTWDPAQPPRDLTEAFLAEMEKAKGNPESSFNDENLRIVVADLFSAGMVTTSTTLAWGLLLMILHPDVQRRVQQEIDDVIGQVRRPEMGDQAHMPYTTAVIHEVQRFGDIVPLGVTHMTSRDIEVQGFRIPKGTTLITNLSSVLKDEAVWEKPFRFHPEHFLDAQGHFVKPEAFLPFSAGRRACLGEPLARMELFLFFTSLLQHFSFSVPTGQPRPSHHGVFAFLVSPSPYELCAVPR
Cytochrome P450 3A4, sequence (P08684 whole entry): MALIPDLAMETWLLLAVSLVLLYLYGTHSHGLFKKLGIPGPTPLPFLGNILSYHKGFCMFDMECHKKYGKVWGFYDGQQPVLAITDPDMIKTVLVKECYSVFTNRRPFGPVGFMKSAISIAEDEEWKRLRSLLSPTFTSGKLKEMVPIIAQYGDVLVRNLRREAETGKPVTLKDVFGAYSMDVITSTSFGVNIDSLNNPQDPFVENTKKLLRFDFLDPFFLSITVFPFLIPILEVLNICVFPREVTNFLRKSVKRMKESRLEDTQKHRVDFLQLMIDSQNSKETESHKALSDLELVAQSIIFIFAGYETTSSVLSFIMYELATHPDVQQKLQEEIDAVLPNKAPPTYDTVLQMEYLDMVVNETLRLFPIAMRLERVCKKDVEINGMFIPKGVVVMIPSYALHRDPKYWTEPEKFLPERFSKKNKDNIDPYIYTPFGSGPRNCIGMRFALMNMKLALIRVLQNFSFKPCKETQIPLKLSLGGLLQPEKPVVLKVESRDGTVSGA

`Cc1ccc(C(=N)c2ccccc2Cc2cccc3ccccc23)c2ccccc12`: the results for the AC50 on Cytochrome P450 1A2 and on Cytochrome P450 2D6 were 1 µM (inconclusive) and 2.51 µM (inconclusive), respectively.

For `Cc1cc2cc3c(cc2nc1SCC(=O)N1c2ccccc2CC1C)OCO3` (centres undefined), the half-maximal cytotoxic concentration (CC50) (in general, the concentration that lowers cell viability or growth by half) in experiment [1] was 34 µM (active).

`Cc1ccc2nc(-c3ccccc3)c(CN(C)C)c(O)c2c1`: the half-maximal activity concentration (AC50) – broadly, the midpoint of the concentration-response curve, whichever way the signal moves – is 20 µM (inconclusive) on Cytochrome P450 2C19, 15.8 µM (inconclusive) at Cytochrome P450 1A2 and 12.6 µM (inconclusive) at Cytochrome P450 2C9.

`CCc1nc2ccc(C(=O)O)cc2nc1CC`: the half-maximal effective concentration (EC50) (as a rule, the concentration giving half of the maximal effect) in experiment [2] was 6.93 µM (active).

`O=C(COC(=O)C1=COCCO1)Nc1ccc2c(c1)OCO2`: the concentration giving a half-maximal response (EC50) in experiment [2] was > 195 µM (not active).

Regarding `COC(=O)CCC(=O)Nc1cccc(C(=O)Nc2cccc(Cl)c2)c1`, the concentration at half-maximal activity (AC50) is 22.4 µM (inconclusive) on Cytochrome P450 2D6 and 0.398 µM (inconclusive) at Cytochrome P450 3A4.

In the case of `CC(C)(C)c1ccc(OC(=O)c2cccnc2)cc1`, the EC50 in [2] is > 195 µM (not active).

`CC1(C)CC(=O)c2cc(OCC(=O)N3CCN(c4ccccc4F)CC3)ccc2O1`: the EC50 in experiment [2] is > 195 µM (not active).

Take `CN(C)S(=O)(=O)c1ccc(C(=O)OCCCNC2=NS(=O)(=O)c3ccccc32)cc1`: in experiment [2], the half-maximal effective concentration (EC50) was 26 µM (active).

`Cc1c([C@@H](C)[C@H]2NC[C@H](C)C[C@@H]2O)ccc2c1C[C@@H]1[C@H]2CC=C2C[C@@H](O)CC[C@@]21C`: the AC50 on Cytochrome P450 3A4 is 3.16 µM (inconclusive).

Turning to `Cc1ccc(C)c(C(=O)CN2C3=NCCCN3c3ccccc32)c1`, the results for the concentration at half-maximal activity (AC50) on Cytochrome P450 2C19 and on Cytochrome P450 3A4 were 39.8 µM (inconclusive) and 12.6 µM (inconclusive), respectively.

In the case of `COc1ccc(C(=O)C(OC(=O)CNC(=O)c2ccco2)c2ccccc2)cc1` (centres undefined), the values for the AC50 on Cytochrome P450 1A2 and on Cytochrome P450 2D6 were 31.6 µM (inconclusive) and 35.5 µM (inconclusive), respectively.

In the case of `O=C(Nc1ccc(/C=C/c2nc3ccccc3o2)cc1)c1c(F)cccc1F`, the 50% cytotoxic concentration (CC50) in experiment [1] was > 50 µM (active).

Turning to `O=C(O)/C=C/c1cn(-c2ncc(C(F)(F)F)cc2Cl)c2ccccc12`, the half-maximal activity concentration (AC50) was 14.1 µM (inconclusive) at Cytochrome P450 2C19, 35.5 µM (inconclusive) at Cytochrome P450 1A2 and 17.8 µM (inconclusive) at Cytochrome P450 2C9.

In the case of `CCN(CC)C(=O)COC(=O)c1ccc(C)c(NC(=O)c2ccco2)c1`, the concentration giving a half-maximal response (EC50) in experiment [2] was > 195 µM (not active).

On to `O=C(Nc1ccc(-c2csc(Nc3ccccc3)n2)cc1)c1cc([N+](=O)[O-])cc(C(F)(F)F)c1`, for which the CC50 in experiment [1] was 14.6 µM (active).

Consider `Cc1ccc2nc(NC(=O)c3ccc(NS(=O)(=O)c4cccs4)cc3)sc2c1`, for which, in experiment [1], the CC50 was 25.1 µM (active).

Consider `O=c1c(-c2ccccc2)nc2cnc(N3CCNCC3)nc2n1-c1ccccc1`, for which the concentration at half-maximal activity (AC50) at Cytochrome P450 3A4 is 20 µM (inconclusive).

`CCCNC(=O)OC[C@@H]1O[C@H](CCO/N=C\c2ccc(C(=O)N3[C@H](c4ccc(C)cc4)[C@@H](C)CC[C@H]3C(=O)OC)cc2)C=C[C@@H]1Oc1ccc(OC)cc1`: the half-maximal activity concentration (AC50) at Cytochrome P450 2C19 is 1.26 µM (inconclusive); on Cytochrome P450 3A4, 3.16 µM (inconclusive).

In the case of `COc1ccc(-c2cc(C(F)(F)F)n3ncc(C(=O)N(C)Cc4ccccc4)c3n2)cc1`, the 50% cytotoxic concentration (CC50) in [1] is 32.9 µM (active).

For `Cc1nc2cnc(Oc3ccccc3)nc2n(CCC#N)c1=O`, the results for the AC50 at Cytochrome P450 1A2 and on Cytochrome P450 3A4 were 20 µM (inconclusive) and 25.1 µM (inconclusive), respectively.

Turning to `Ic1ccccc1CN[C@@H]1C2CCN(CC2)[C@H]1C(c1ccccc1)c1ccccc1`, the concentration at half-maximal activity (AC50) is 12.6 µM (inconclusive) on Cytochrome P450 1A2 and 20 µM (inconclusive) at Cytochrome P450 3A4.

Consider `C1CCC(Nc2nnnn2C2CCCCC2)CC1`, for which, in [2], the EC50 is given as > 195 µM (not active).

In the case of `Cc1cccc(-c2nnc(NC(=O)c3cccs3)s2)c1`, in experiment [2], the EC50 is > 195 µM (not active).

Turning to `CC(C)c1ccc(NC2(C#N)C(=O)Nc3ccccc32)cc1` (centres undefined), the 50% effective concentration (EC50) in [2] is > 195 µM (not active).

On to `O=C(COC(=O)c1ccccc1SCC(=O)N1CCCC1)NC1CCS(=O)(=O)C1` (centres undefined), for which the half-maximal effective concentration (EC50) in [2] is on record as > 195 µM (not active).

`O=C(NCC1CCCO1)c1ccc2c(=O)n(Cc3ccco3)c(SCC(=O)N3CCCC3)nc2c1` (centres undefined): the concentration at half-maximal activity (AC50) at Cytochrome P450 2C19 is 15.8 µM (inconclusive); at Cytochrome P450 3A4 it was 12.6 µM (inconclusive).

Consider `O=C(Nc1ccc(N2CCCC2)c(Cl)c1)c1ccc(Br)o1`, for which the cytotoxic concentration (CC50) in experiment [1] was 30.6 µM (active). The EC50 is 1.63 µM (active) in [3] and > 60 µM (not active) in experiment [4].

`CNc1oc(-c2ccc(Cl)cc2)nc1C#N`: the half-maximal activity concentration (AC50) was 22.4 µM (inconclusive) at Cytochrome P450 2D6, 8.91 µM (inconclusive) at Cytochrome P450 2C9 and 14.1 µM (inconclusive) on Cytochrome P450 3A4.

With `O=S(=O)(NC(=Nc1ccc(F)cc1F)c1ccc(Cl)cc1)c1ccccc1`, at Cytochrome P450 3A4, the concentration at half-maximal activity (AC50) is 2.82 µM (inconclusive).

For the compound `CC1CCCCN1CC(=O)Nc1ccccc1Sc1ccccc1` (centres undefined), the EC50 in experiment [2] is > 195 µM (not active).

As for `CCOC(=O)c1c(C)[nH]c(C(=O)N2CCc3cc(OC)c(OC)cc3C2)c1C`, the 50% cytotoxic concentration (CC50) in experiment [1] is 34.8 µM (active).

Turning to `CCOc1ccc(N2CSC(=S)N(c3ccc(OCC)cc3)C2)cc1`, the 50% effective concentration (EC50) in [2] is listed as > 195 µM (not active).

With `COc1ccc(Oc2ncc3nc(-c4ccc(OC)cc4)c(=O)n(C)c3n2)cc1`, the AC50 on Cytochrome P450 1A2 was 3.16 µM (inconclusive); at Cytochrome P450 3A4, 3.98 µM (inconclusive).

As to `Cc1ccc(-c2ccc(=O)n(CC(=O)N3CCN(c4cccc(C)c4)C(C)C3)n2)cc1` (centres undefined), the figures for the AC50 on Cytochrome P450 1A2, on Cytochrome P450 2D6 and at Cytochrome P450 2C9 were 20 µM (inconclusive), 28.2 µM (inconclusive) and 20 µM (inconclusive), respectively.

As to `c1ccc(CCNCc2ccco2)nc1`, the values for the AC50 at Cytochrome P450 1A2 and at Cytochrome P450 2D6 were 6.31 µM (inconclusive) and 2.51 µM (inconclusive), respectively.

As for `CC1CCN(S(=O)(=O)c2ccc(C(=O)Nc3nnc(-c4ccccn4)o3)cc2)CC1`, the EC50 in experiment [2] was 45.5 µM (active).

For the compound `COc1ccc(Nc2nc(N)nc(CSc3n[nH]c(-c4ccccc4)n3)n2)cc1`, the AC50 at Cytochrome P450 2D6 is 3.55 µM (inconclusive); at Cytochrome P450 2C9 it was 12.6 µM (inconclusive); on Cytochrome P450 3A4, 3.98 µM (inconclusive).

As for `CCCCNc1nc2cccnc2s1`, in [2], the EC50 is recorded as > 195 µM (not active).

On to `CCOC(=O)C1CCCN(c2nc3ccccc3nc2C(C#N)C(=O)OCCOC)C1` (centres undefined), for which the 50% cytotoxic concentration (CC50) in experiment [1] is 41.7 µM (active).

Regarding `C[n+]1c(/C=C/c2ccc(O)c3ncccc23)[se]c2ccccc21`, the concentration at half-maximal activity (AC50) on Cytochrome P450 2C19 is 3.98 µM (inconclusive); on Cytochrome P450 2C9, 6.31 µM (inconclusive); at Cytochrome P450 3A4, 3.98 µM (inconclusive).

On to `Cc1nc2ccccc2c(=O)n1NC(=O)c1ccccc1Cl`, for which the values for the AC50 on Cytochrome P450 1A2 and on Cytochrome P450 3A4 were 15.8 µM (inconclusive) and 22.4 µM (inconclusive), respectively.

As for `C=CC/N=C1\S/C(=C\c2ccc(Cl)cc2)C(=O)N1CC=C`, the half-maximal cytotoxic concentration (CC50) in experiment [1] is 44.3 µM (active).

On to `O=C(Cc1ccccc1)N/N=C/c1cc(Br)c(Br)o1`, for which the AC50 at Cytochrome P450 3A4 is 28.2 µM (inconclusive).

For `CC(=O)C1C(=O)c2c(cccc2[N+](=O)[O-])/C1=N\c1ccc(S(N)(=O)=O)cc1` (centres undefined), the EC50 in [2] is listed as > 195 µM (not active).

As to `O=C(O)c1cccc(NC(=S)N/N=C/c2cccnc2)c1`, the EC50 in [2] is reported as > 195 µM (not active).

For `COc1ccc(CN2/C(=N/C(=O)CCC3CCCC3)SC3CS(=O)(=O)CC32)cc1` (centres undefined), in experiment [2], the EC50 is > 195 µM (not active).

On to `O=C(O)c1c(Cl)c(Cl)c(Cl)c(Cl)c1C(=O)Nc1ccc2cn[nH]c2c1`, for which the AC50 on Cytochrome P450 2D6 and at Cytochrome P450 3A4 was 3.98 µM (inconclusive) each time.
